Conditions: Liquid

COC(C)(C)C [2-methoxy-2-methylpropane]
Brillouin light scattering
Conditions | speed of sound [m/s]
303.11 K, 7000 kPa | 1078.5
303.12 K, 10000 kPa | 1093.4
303.13 K, 1000 kPa | 1023.2
303.15 K, 2500 kPa | 1035.3
303.15 K, 8500 kPa | 1086.9
303.2 K, 4000 kPa | 1045.4
303.2 K, 5500 kPa | 1058.1
308.06 K, 2500 kPa | 1018.4
308.11 K, 10000 kPa | 1080
308.12 K, 4000 kPa | 1025.3
308.13 K, 5500 kPa | 1037.2
308.13 K, 8500 kPa | 1064.6
308.23 K, 1000 kPa | 1003.3
308.24 K, 7000 kPa | 1052.5
313.09 K, 1000 kPa | 975
313.1 K, 2500 kPa | 990.3
313.13 K, 7000 kPa | 1034.7
313.15 K, 4000 kPa | 1007
313.17 K, 10000 kPa | 1051.6
313.2 K, 5500 kPa | 1018.3
313.24 K, 8500 kPa | 1049
318.06 K, 8500 kPa | 1020.1
318.07 K, 1000 kPa | 959.3
318.18 K, 7000 kPa | 1012.5
318.22 K, 4000 kPa | 985.3
318.23 K, 2500 kPa | 971.4
318.24 K, 5500 kPa | 996.7
318.25 K, 10000 kPa | 1040
323.07 K, 10000 kPa | 1016.8
323.12 K, 8500 kPa | 1006.1
323.14 K, 7000 kPa | 987.9
323.15 K, 1000 kPa | 932.5
323.18 K, 2500 kPa | 947.7
323.21 K, 5500 kPa | 982.2
323.25 K, 4000 kPa | 964.9
328.06 K, 7000 kPa | 971.9
328.08 K, 1000 kPa | 917
328.11 K, 2500 kPa | 926.2
328.13 K, 8500 kPa | 984.6
328.14 K, 5500 kPa | 963.3
328.16 K, 4000 kPa | 942.5
328.19 K, 10000 kPa | 991.7
333.08 K, 1000 kPa | 893.5
333.08 K, 2500 kPa | 904.6
333.12 K, 4000 kPa | 920.6
333.18 K, 10000 kPa | 978.4
333.2 K, 5500 kPa | 941.5
333.21 K, 7000 kPa | 949.1
333.22 K, 8500 kPa | 967.6
338.09 K, 1000 kPa | 867.8
338.11 K, 7000 kPa | 931.3
338.11 K, 8500 kPa | 941
338.16 K, 5500 kPa | 922.2
338.17 K, 10000 kPa | 954.4
338.22 K, 4000 kPa | 898.7
338.23 K, 2500 kPa | 884.4
343.15 K, 7000 kPa | 911.8
343.18 K, 8500 kPa | 926.4
343.19 K, 4000 kPa | 883.2
343.19 K, 5500 kPa | 892.8
343.2 K, 1000 kPa | 845.4
343.22 K, 2500 kPa | 868.6

Brillouin Light Scattering
Conditions | speed of sound [m/s]
303.19 K | 1024.7
308.16 K | 988.6
313.08 K | 960.4
318.19 K | 942.7
323.07 K | 912.4
328.21 K | 904.7
333.13 K | 876.8
338.07 K | 855.1
343.12 K | 826.3

From the NIST ThermoML archive (doi:10.1021/acs.jced.6b00202)
